Data published in the supplement of paper PMC11208160.

experiment: recombinant barcode read abundance after kanamycin selection (control-corrected) (log10(CPM+1)); higher = more efficient recombination; sequences stand for … in AGTGCAGAGAAAATCGGCCAGTTTTCTCTGCCTGCAGTCCGCATGCCGT…AGATTTATGCAGCGGACTGCCTTTCTCCCAAAGTGATAAACCGGACAGTATCATGGACCGGTTTTCCCGGTAATCCGTATTTGCAAGGTTGGTTTCACT; site = the 11-nt target
Summary of the method: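 Recombination efficiency draws on barcodes counted at recombinant junctions in a pooled E. coli screen of targets paired with IS621 bridge RNA target-binding loops. The counts were converted to counts per million, averaged and corrected against the chloramphenicol/ampicillin LB agar control, then reported as log10(CPM+1). Selection plates held chloramphenicol/ampicillin/kanamycin with 0.1 mM IPTG, with two replicates per condition.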
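Further: IS621 recombinase and bridge RNA in Escherichia coli cells.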

Compared with “TACAGCTCTTGGGTTCTAACCTGTTGCTT (site TACTGCTCTAA)”, “TACATCCCTTGGGTTCTAACCTGTTGCCC (site TACATCCCTAG)” is higher in “recombinant barcode read abundance (log10)” value: 0.107 for the first, 0.41 for the second.

First: TACATCCCTTGGGTTCTAACCTGTTGCCC (site TACATCCCTCG)
Second: TACATCCCTTGGGTTCTAACCTGTTGCCC (site TACATCCCTGG)
The “recombinant barcode read abundance (log10)” value of the first is lower: 0.111 for the first, 0.646 for the second.

“TACATCCCTTGGGTTCTAACCTGTTGCCC (site TACATCCCTTG)” and “TACCATTCTTGGGTTCTAACCTGTTGCTT (site TACAGTTCTAA)” are within 0.2 log units of each other in “recombinant barcode read abundance (log10)” value: 0.0347 for the first, 0.0331 for the second.

“TACCATTCTTGGGTTCTAACCTGTTGCTT (site TACCATTCTAA)” and “TACCCACCTTGGGTTCTAACCTGTTGCCT (site AACCCACCTAG)” are within 0.2 log units of each other in “recombinant barcode read abundance (log10)” value: 0.239 for the first, 0.295 for the second.

“TACCCACCTTGGGTTCTAACCTGTTGCCT (site CACCCACCTAG)” and “TACCCACCTTGGGTTCTAACCTGTTGCCT (site GACCCACCTAG)” are within 0.2 log units of each other in “recombinant barcode read abundance (log10)” value: 0.169 for the first, 0.262 for the second.

Compared with “TACCCACCTTGGGTTCTAACCTGTTGCCT (site TACCCACCTAG)”, “TACCCATCTTGGGTTCTAACCTGTTGCCT (site TAACCATCTAG)” is lower in “recombinant barcode read abundance (log10)” value: 1.47 for the first, 0.0921 for the second.

Compared with “TACCCATCTTGGGTTCTAACCTGTTGCCT (site TACCCATCTAG)”, “TACCCATCTTGGGTTCTAACCTGTTGCCT (site TAGCCATCTAG)” is lower in “recombinant barcode read abundance (log10)” value: 0.862 for the first, 0.106 for the second.

“TACCCATCTTGGGTTCTAACCTGTTGCCT (site TATCCATCTAG)” and “TACCCGACTTGGGTTCTAACCTGTTGCCT (site TACCAGACTAG)” are within 0.2 log units of each other in “recombinant barcode read abundance (log10)” value: 0.0366 for the first, 0.0911 for the second.

Going from “TACCCGACTTGGGTTCTAACCTGTTGCCT (site TACCCGACTAG)” to “TACCCGACTTGGGTTCTAACCTGTTGCCT (site TACCGGACTAG)”, the “recombinant barcode read abundance (log10)” value falls from 1.41 to 0.178.

First: TACCCGACTTGGGTTCTAACCTGTTGCCT (site TACCTGACTAG)
Second: TACCCGCCTTGGGTTCTAACCTGTTGCCT (site TACCCGCCTAG)
The “recombinant barcode read abundance (log10)” value of the first is lower: 0.00741 for the first, 0.838 for the second.

“TACCCGCCTTGGGTTCTAACCTGTTGCCT (site TCCCCGGCTAG)” and “TACCCTACTTGGGTTCTAACCTGTTGCAT (site TACACTACTAT)” are within 0.2 log units of each other in “recombinant barcode read abundance (log10)” value: 0.206 for the first, 0.0106 for the second.

Going from “TACCCTACTTGGGTTCTAACCTGTTGCAT (site TACCCTACTAT)” to “TACCGCCCTTGGGTTCTAACCTGTTGCGT (site GGAAAGACTGT)”, the “recombinant barcode read abundance (log10)” value falls from 0.654 to 0.166.

“TACCGCCCTTGGGTTCTAACCTGTTGCGT (site TACCGCCCTAC)” and “TACCGGACTTGGGTTCTAACCTGTTGCGT (site TACCGGACTAC)” are within 0.2 log units of each other in “recombinant barcode read abundance (log10)” value: 1.95 for the first, 2.13 for the second.

“TACCGGACTTGGGTTCTAACCTGTTGCGT (site TACCGGCCTAA)” and “TACCGTTCTTGGGTTCTAACCTGTTGCCT (site TAACGTTCTAG)” are within 0.2 log units of each other in “recombinant barcode read abundance (log10)” value: 0.0831 for the first, 0 for the second.

“TACCGTTCTTGGGTTCTAACCTGTTGCCT (site TACCGTTCTAG)” and “TACGAATCTTGGGTTCTAACCTGTTGCCG (site TACGAATCTAG)” are within 0.2 log units of each other in “recombinant barcode read abundance (log10)” value: 0.41 for the first, 0.235 for the second.

“TACGAATCTTGGGTTCTAACCTGTTGCCG (site TACGAATCTCG)” and “TACGAGGCTTGGGTTCTAACCTGTTGCCT (site TACGAGGCTAG)” are within 0.2 log units of each other in “recombinant barcode read abundance (log10)” value: 0.465 for the first, 0.406 for the second.
